Assays:
[1] = target: T1, Neuronal acetylcholine receptor; alpha4/beta2 (Homo sapiens, UniProt P17787+P43681); experiment: Inhibition of alpha4beta2 nicotinic acetylcholine receptor (unknown origin); format: protein-complex assay
[2] = target: Neuronal acetylcholine receptor; alpha4/beta2 (Rattus norvegicus) (UniProt P09483+P12390); experiment: Displacement of [3H]cytisine from alpha4beta2 nicotinic acetylcholine receptor in Rattus norvegicus (rat) cerebral cortex at 10 uM after 75 min by scintillation counting; format: tissue-based
[3] = target: T1, Neuronal acetylcholine receptor; alpha4/beta2; experiment: Displacement of [3H]nicotine from Homo sapiens (human) alpha4beta2 nicotinic acetylcholine receptor expressed in Homo sapiens (human) SH-EP1 cells after 2.5 min by scintillation counting; format: cell-based

T1 sequence (P17787 whole entry): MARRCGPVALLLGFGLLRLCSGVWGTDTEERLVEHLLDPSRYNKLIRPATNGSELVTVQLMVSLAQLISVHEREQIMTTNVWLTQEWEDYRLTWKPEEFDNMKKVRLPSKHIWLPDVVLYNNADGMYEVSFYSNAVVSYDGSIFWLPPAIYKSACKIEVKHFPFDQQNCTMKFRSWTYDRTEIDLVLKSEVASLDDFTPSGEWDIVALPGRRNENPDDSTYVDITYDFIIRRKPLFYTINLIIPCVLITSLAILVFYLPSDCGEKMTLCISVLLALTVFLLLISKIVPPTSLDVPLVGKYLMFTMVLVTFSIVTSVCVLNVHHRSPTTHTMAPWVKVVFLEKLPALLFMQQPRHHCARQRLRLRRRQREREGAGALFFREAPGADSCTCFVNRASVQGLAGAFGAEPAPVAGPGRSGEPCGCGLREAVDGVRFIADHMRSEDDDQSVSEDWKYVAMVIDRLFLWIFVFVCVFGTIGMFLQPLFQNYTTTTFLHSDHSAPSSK
T1 sequence (P43681 whole entry): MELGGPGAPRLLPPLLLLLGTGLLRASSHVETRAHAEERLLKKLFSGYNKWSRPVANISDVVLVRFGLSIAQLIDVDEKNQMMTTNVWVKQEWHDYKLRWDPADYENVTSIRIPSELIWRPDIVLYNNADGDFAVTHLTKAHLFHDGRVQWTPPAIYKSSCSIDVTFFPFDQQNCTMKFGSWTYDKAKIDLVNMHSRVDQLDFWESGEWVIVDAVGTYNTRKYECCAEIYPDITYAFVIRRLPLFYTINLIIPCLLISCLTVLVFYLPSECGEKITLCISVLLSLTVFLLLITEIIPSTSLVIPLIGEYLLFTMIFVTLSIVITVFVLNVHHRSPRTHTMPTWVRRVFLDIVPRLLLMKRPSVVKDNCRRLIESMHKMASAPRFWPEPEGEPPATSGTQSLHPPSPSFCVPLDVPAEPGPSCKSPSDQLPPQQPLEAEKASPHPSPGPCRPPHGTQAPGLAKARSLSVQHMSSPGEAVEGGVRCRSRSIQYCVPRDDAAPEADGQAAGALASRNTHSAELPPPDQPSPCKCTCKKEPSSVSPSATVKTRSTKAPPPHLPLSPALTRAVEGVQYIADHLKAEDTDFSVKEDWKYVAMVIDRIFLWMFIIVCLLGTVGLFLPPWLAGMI

Structure (SMILES)	inhibition [2] [%]	Ki ([3]; read-out: Ki) [nM]	also measured
O=[N+]([O-])c1cccc(OC[C@@H]2CC3CCN2CC3)c1	–	–	Ki [1]: 734 nM
CCCN(CCC)CCOc1cccc([N+](=O)[O-])c1	21	–	Ki ([3]; sh-ep1): Not Active
CN(C)CCOc1cncc(Cl)c1	84	450	–
CC(C)N(CCOc1cccc([N+](=O)[O-])c1)C(C)C	0	–	–
CN(C)CCOc1cccc([N+](=O)[O-])c1	33	3390	–
Oc1cccc(OC[C@@H]2CC3CCN2CC3)c1	–	–	Ki [1]: 4 nM
CN(C)CCOc1cccc(O)c1	–	360	–
CC(C)N(CCOc1cccnc1)C(C)C	64	11200	inhibition [3]: Dose-dependent effect
CN(C)CCOc1cccnc1	95	300	–
CC(C)N(CCOc1cccc(O)c1)C(C)C	0	–	–

More lines, main results first:

inhibition [2] [%]	Structure (SMILES)	Ki ([3]; read-out: Ki) [nM]	also measured
0	Cc1c(O)cccc1OCCN(c1ccccc1)c1ccccc1	–	–
0	O=[N+]([O-])c1cccc(OCCN(c2ccccc2)c2ccccc2)c1	–	–
0	Oc1cccc(OCCN(c2ccccc2)c2ccccc2)c1	–	–
0	c1ccc(N(CCOc2cccnc2)c2ccccc2)cc1	–	–
